The values below come from patent publication US4005217A, “Treatment of helminth infections with substituted phenyl-thiourea derivatives” (May & Baker Limited, priority 1970, dated 1977).

SMILES strings stand for the structures. In brackets after ≈: the same amount, converted by molar mass. Structures can show the parent of a compound that is named as a salt. Where two headings read alike, the source gives them in different places.

Test [1] relates to Nippostrongylus brasiliensis. The test is described as follows: Test 2: activity against roundworms in rats, treatment 24 hours after infection, worm counts 6 days after dosing. Format: in vivo. Particulars: rats; for inhibition in vivo at 1000 mg/kg / worm damage: Test 2, 1000 mg/kg oral. As for the experimental part:
Test 2 -- Rats were infected with 100 Nippostrongylus brasiliensis larvae each, by the subcutaneous route. After 24 hours the rats were randomised and allotted to groups of 5 animals each, ready for treatment. Doses of the test compound were then administered to each group by the oral, subcutaneous and intraperitoneal routes respectively, one group of 10 animals being left untreated as a control. All the rats were killed for post-mortem worm counts 6 days after dosing. The activities, expressed in terms of the percentage reductions in mean worm load of the treated groups or damage to the worms compared with the untreated control group, are given below in Table I.

Test [2] relates to Trichostrongylus colubriformis. The test can be described thus: Activity against 4th larval stages in lambs, oral treatment (Table II). Format: in vivo. Particulars: 100 mg/kg oral. As for the experimental part: (§1) i. 9 Worm-free lambs were each infected with H.contortus (approximately 9,000), T. axei (approximately 7,000) and T. colubriformis (approximately 12,000) infective larvae. After 7 days, 4 lambs were treated orally with 100 mg/kg animal body weight of the 2 test compounds, i.e. 2 lambs per compound, against the 4th larval stages of the worms. 23 Days after infection, all 9 lambs were killed for post-mortem worm counts and the burdens of each worm species in the 4 treated animals compared with those in the remaining 5 untreated control animals.

For test [3], the system named is Haemonchus contortus. Described as above. The following applies: 100 mg/kg oral. Format: in vivo. As to the method: as §1
Test [4] concerns Trichostrongylus axei. The description is as above. Format: in vivo. The following applies: 100 mg/kg oral. As to the method: as §1
In test [5] the test system is Nippostrongylus brasiliensis eggs. The test is described as follows: In vitro activity against roundworms (egg hatching and larvae). Particulars: 96 h, tested at 100, 10, 1 and 0.1 μg/ml, inhibited or delayed hatching of eggs, or killed, retarded growth or reduced activity of larvae during 4 days, read-out: M.I.C. (minimum inhibitory concentration). Type of test: cell-based. As for the experimental part:
Compounds of formula I were tested at concentrations of 100 μg/ml, 10 μg/ml, 1 μg/ml and 0.1 μg/ml in small glass containers. If the compound was not soluble in water, a volatile organic medium, e.g. acetone, chloroform, ethanol or methanol was used. An amount of material appropriate for each final concentration was measured and placed in duplicate test containers and if an organic solvent was used it was allowed to evaporate completely. Nippostrongylus brasiliensis eggs were recovered by saturated saline centrifugal flotation from the faeces of rats heavily infected with third stage larvae six days previously. They were washed several times in water and suspended in water in a suitable concentration. From 25-50 eggs were placed in each container and the final volume was made up by the addition of a very dilute aqueous suspension of mouse faeces which served as the growth medium. The minimum inhibitory concentrations of each compound (M.I.C.), shown in the following Table V was the minimum concentration in μg/ml total liquid volume at which it inhibited or delayed hatching of eggs, or at which it killed, retarded growth or reduced activity of larvae during the 4 days after beginning the test.

The test system of test [6] is Trichostrongylus colubriformis. The test can be described thus: Activity against mature adult stages in lambs, oral treatment (Table III). Format: in vivo. Particulars: 120 h, 15 mg/kg oral, read-out: Mean percentage reduction in worm burdens, T.colubriformis. As for the experimental part:
(§2) ii. 20 Worm-free lambs were each infected with H. contortus (approximately 5,600), T. axei (approximately 9,300) and T. colubriformis (approximately 10,000) infective larvae. After 22 days, 16 lambs were treated orally with 15 mg/kg animal body weight of the 8 test compounds, i.e. 2 lambs per compound, against the mature adult stages of the worms. 27 Days after infection, all 20 lambs were killed for post-mortem worm counts and the burden of each worm species in the 16 treated animals compared with those in the remaining 4 untreated control animals.

The subject of test [7] is Haemonchus contortus. The description is as above. Type of test: in vivo. Particulars: 120 h, 15 mg/kg oral, read-out: Mean percentage reduction in worm burdens, H.contortus. As for the experimental part: as §2
Test [8] concerns Trichostrongylus axei. The description is as above. Format: in vivo. Particulars: 120 h, 15 mg/kg oral, read-out: Mean percentage reduction in worm burdens, T.axei. As to the method:
as §2

Test [9] deals with Nippostrongylus brasiliensis. The test can be described thus: Test 1: activity against roundworms in rats, treatment 6 days after infection (patent infection), worm counts 48 hours after treatment. Type of test: in vivo. As for the experimental part:
Test 1 - Rats were infected with 100 Nippostrongylus brasiliensis larvae each, by the subcutaneous route. After 6 days, when the infection was patent, the rats were randomised and alloted to groups of 10 animals each, ready for treatment. One group was used for each dose level of the test compound and, in each experiment, one group was left untreated as a control. All the rats were killed for post-mortem worm counts 48 hours after treatment. The activity, expressed in terms of the percentage reduction in mean worm load of the treated group compared with the untreated group, is shown in Table I.

Another test has as its system Trichinella spiralis. The test is described as follows: Activity against roundworms in mice. Type of test: in vivo. Particulars: 100 mg/kg subcutaneous at 2 hours and 24 hours post infection, killed 5 days after second dose. As to the method: Mice were infected with approximately 100 Trichinella spiralis larvae each, by the oral route. The mice were randomised and allotted to two groups of 4 animals each. Doses of 1-methoxycarbonyl-3-(2-dimethylaminoacetamidophenyl)thiourea hydrochloride were then administered to one group by the subcutaneous route at 2 hours post infection and again at 24 hours post infection, one group of 4 animals being left untreated as a control. The doses given to the mice were 100 mg/kg animal body weight. All the mice were killed for postmortem examination 5 days after the second dose. The activity, expressed in terms of the percentage reduction in mean worm load of the treated group compared with the control group, was 95%.

The subject of a further test is H. contortus. The test can be described thus: Activity in lambs by subcutaneous injection against 4th larval and adult stages. The following applies: 75 mg/kg subcutaneous injection (18% w/v aqueous solution). Format: in vivo. As for the experimental part:
(§3) b. 8 Worm-free lambs were each infected with H. contortus (approximately 7,000) and T. colubriformis ((approximately 15,000) infective larvae. After 7 days, 2 lambs were treated by subcutaneous injection of an 18% w/v aqueous solution at 75 mg/kg animal body weight of the test compound against the 4th larval stages of the worms. 28 Days after infection, 2 lambs were similarly treated against the adult stages of the worms. 35 Days after infection all 8 lambs were killed for post-mortem worm counts and the burdens of each worm species in the 4 treated animals compared with those in the remaining 4 untreated animals.

The test system of a further test is T. colubriformis. The test is described as above. Format: in vivo. Particulars: 75 mg/kg subcutaneous injection (18% w/v aqueous solution). As to the method: as §3
Test [10] relates to influenza virus type A2 /Hong Kong/5/68. Format: in vivo. Particulars: mice, 250 mg/kg oral 3 hours before and 1 hour after infection; pooled lungs 24 hours after infection; greatest dilution producing agglutination.
Setting [11] is: Nippostrongylus brasiliensis, 144 h, read-out: Percentage reduction in N.brasiliensis load.

On to `CCCCc1ccc(NC(=S)NC(=O)OC)c(NC(C)=O)c1` [1-methoxycarbonyl-3-(2-acetamido-4-n-butylphenyl)thiourea], for which, in test [1] (setting [11]), the inhibition in vivo at 1000 mg/kg was 98%. The worm damage result in test [1] is given as “worm damage”; in test [9] (Test 1, 500 mg/kg oral), “worm damage”. Moreover, the “Mean percentage reduction in worm burdens, T.colubriformis” value in test [2] was 100%. The “Mean percentage reduction in worm burdens, H.contortus” value with Haemonchus contortus [3] worked out at 99.9%. Also, the “Mean percentage reduction in worm burdens, T.axei” value in the test on Trichostrongylus axei [4] came to 99.5%. In addition, the MIC in test [5] is 0.1 µg/mL (≈ 0.309 µM). Besides, the inhibition in vivo at 15 mg/kg in test [6] was found to be 6.7%; with Haemonchus contortus [7] it was 76.7%; in the test with Trichostrongylus axei [8] it was 66.9%.

Turning to `COC(=O)NC(=S)Nc1ccc(NC(=O)OC(C)C)cc1N` [1-methoxycarbonyl-3-(2-amino-4-isopropoxycarbonylaminophenyl)thiourea], the inhibition in vivo at 1000 mg/kg in [1] (setting [11]) stood at 100%. Also, in test [5], the MIC came out at 100 µg/mL (≈ 306 µM). For the same compound, the values for the inhibition in vivo at 15 mg/kg (in test [6]; in the test on Haemonchus contortus [7]; with Trichostrongylus axei [8]) were 83%, 97.7% and 94.6%, respectively. Moreover, the worm damage entry in test [9] (Test 1, 500 mg/kg oral) is recorded as “worm damage”.

Take `CCCCc1ccc(NC(=S)NC(=O)OC)c(N)c1` [1-methoxycarbonyl-3-(2-amino-4-n-butylphenyl)thiourea]: the “Mean percentage reduction in worm burdens, T.colubriformis” value in [2] stood at 100%. Besides, the “Mean percentage reduction in worm burdens, H.contortus” value with Haemonchus contortus [3] is 100%. For the same compound, the “Mean percentage reduction in worm burdens, T.axei” value in the test with Trichostrongylus axei [4] was 99.5%. In test [5], the MIC stood at 0.1 µg/mL (≈ 0.355 µM). Besides, the inhibition in vivo at 500 mg/kg in test [9] (Nippostrongylus brasiliensis, po, 48 h, Test 1, 500 mg/kg oral, read-out: Percentage reduction in N.brasiliensis load) is 75%. The worm damage entry in [9] (Test 1, 500 mg/kg oral) is “worm damage”.

On to `COC(=O)NC(=S)Nc1ccccc1NC(=O)CN(C)C` [1-methoxycarbonyl-3-(2-dimethylaminoacetamidophenyl)thiourea hydrochloride], for which the “percentage reduction in mean worm load” value in the test with Trichinella spiralis came to 95%. Also, the inhibition in vivo at 1000 mg/kg in test [1] (setting [11]) was determined as 100%; in test [9] (Nippostrongylus brasiliensis, po, 48 h, Test 1, 1000 mg/kg oral, read-out: Percentage reduction in N.brasiliensis load) it was 91%. The inhibition in vivo at 50 mg/kg in [1] (Nippostrongylus brasiliensis, ip, 144 h, Test 2, 50 mg/kg intraperitoneal, read-out: Percentage reduction in N.brasiliensis load) was 89%. For the same compound, in test [1] (Nippostrongylus brasiliensis, ip, 144 h, Test 2, 100 mg/kg intraperitoneal, read-out: Percentage reduction in N.brasiliensis load), the inhibition in vivo at 100 mg/kg came out at 99%. For the same compound, the inhibition in vivo at 250 mg/kg in test [1] (Nippostrongylus brasiliensis, ip, 144 h, Test 2, 250 mg/kg intraperitoneal, read-out: Percentage reduction in N.brasiliensis load) worked out at 96%; in test [1] (Nippostrongylus brasiliensis, sc, 144 h, Test 2, 250 mg/kg subcutaneous, read-out: Percentage reduction in N.brasiliensis load), 99.5%. Further, the inhibition in vivo at 60 mg/kg in [1] (Nippostrongylus brasiliensis, sc, 144 h, Test 2, 60 mg/kg subcutaneous, read-out: Percentage reduction in N.brasiliensis load) stood at 89.8%. For the same compound, the inhibition in vivo at 500 mg/kg in test [1] (Nippostrongylus brasiliensis, sc, 144 h, Test 2, 500 mg/kg subcutaneous, read-out: Percentage reduction in N.brasiliensis load) came out at 99.5%. Besides, the “Mean percentage reduction in worm burdens, H.contortus” value in the test on H. contortus (4th larval stage) turned out to be 87.1%; in the test with H. contortus (adult stage), 95.3%. Also, the “Mean percentage reduction in worm burdens, T.colubriformis” value in the test on T. colubriformis (4th larval stage) turned out to be 99.9%; with T. colubriformis (adult stage), 99.7%. Moreover, in test [5], the MIC amounted to 1 µg/mL. Besides, the inhibition in vivo at 15 mg/kg in test [6] turned out to be 43.4%; with Haemonchus contortus [7], 60%; with Trichostrongylus axei [8], 78%.

`CCCCc1ccc(NC(=O)OCC)c(NC(=S)NC(=O)OC)c1` [1-methoxycarbonyl-3-(5-n-butyl-2-ethoxycarbonylaminophenyl)thiourea]: the inhibition in vivo at 1000 mg/kg in test [1] (setting [11]) stood at 96%. Further, in test [1], the worm damage result is “worm damage”. Besides, the Haemagglutinin titre-treated animals in test [10] is given as 1/64. Also, in test [5], the MIC amounted to 10 µg/mL (≈ 28.3 µM). Further, the results for the inhibition in vivo at 15 mg/kg (in test [6]; in the test with Haemonchus contortus [7]; in the test on Trichostrongylus axei [8]) were 40.1%, 79.6% and 78.6%, respectively.
